# Assays:
# endogenous GPR55 (HeLa) = experiment: LPI-induced ERK/p38 phosphorylation in shCTRL-HeLa clones (Western blot); format: cell-based, human; details: 10 µM soybean LPI, 10 min, mean of three independent experiments
# Method: (§1) For stable interference of GPR55, HeLa cells were plated at 1.5 × 10^5 cells/well in six-well plates in growth medium without antibiotics, and 24 h later, the cells were transfected with 1.7 µg/well OmicsLink short hairpin (sh)RNA expression clone CSHCTR001-CU6 (shCTRL) or clone HSH022476-3-CU6 (shGPR55) from GeneCopoeia (Rockville, MD, USA), using Lipofectamine 2000, according the manufacturer instructions. Forty-eight hours after transfection, HeLa clones stably expressing shRNAs were selected in growth medium containing 0.3 µg/mL puromycin. The efficiency of interference was monitored by real-time PCR using the primers listed in the Additional file 1: Table S1. HPRT1 was followed as a housekeeping gene.
# (§2) Twenty-four hours after transfection (HEK293T, HeLa cells or clones) or 72 h after interference (RAW264.7 cells), the cells were washed twice with HBSS^++, serum deprived (HEK293T cells for 4 h in DMEM; HeLa cells and clones for 2 h in MEM plus 2 mM glutamine and 25 mM HEPES; RAW264.7 cells for 2 h in DMEM), washed once again with HBSS^++, incubated in stimulation buffer (HBSS^++ with 10 mM HEPES, 0.4% faf-BSA for HEK293T cells; HBSS^++ with 25 mM HEPES and 0.01% faf-BSA for HeLa cells, clones, and RAW264.7 cells) in the absence or presence of stimuli, at 37 °C for the indicated times. Incubations were terminated by washing the cells twice with cold HBSS^++, and the analyses were performed as reported below.
# Cell lysates were obtained by scraping the cells into phospho-lysis buffer: 50 mM Tris–HCl, pH 7.5, 100 mM NaCl, 5 mM EDTA, 1% Triton X-100, 50 mM NaF, 40 mM β-glycerophosphate, 200 µM sodium orthovanadate, plus protease and phosphatase inhibitors (Roche). Following gentle homogenisation by 20 passages through a 26-gauge needle, the lysates were centrifuged at 10,000×g for 5 min at 4 °C, and the supernatants were collected.
# Protein lysates were subjected to SDS-PAGE, and after electrophoresis, the proteins were transferred to a nitrocellulose membrane (PerkinElmer Life Science, Boston, MA, USA). For immunoblotting, the membranes were blocked with 5% non-fat milk in TBS (10 mM Tris–HCl, pH 7.4, 10 mM NaCl) plus 0.1% Tween-20 (T-TBS) for 30 min at room temperature, and incubated with primary antibodies in T-TBS plus 3% BSA for 2 h at room temperature, or overnight at 4 °C. The membranes were washed twice in T-TBS for 7 min, and then incubated with secondary antibodies conjugated to horseradish peroxidase (1:5,000) (Calbiochem, San Diego, CA, USA) in T-TBS with 5% non-fat milk for 30 min at room temperature. The membranes were then washed twice with T-TBS and once with TBS for 5 min, and the signals were detected by ECL (Amersham Pharmacia, Piscataway, NJ, USA). The rabbit anti-phospho AKT (Ser473), anti-phospho p38 (Thr180/Tyr182), anti-phospho p42/44 (Thr202/Tyr204), anti-p38 (all at dilution 1:1000) were from Cell Signaling Technology (Danvers, MA, USA). The rabbit anti-AKT (B-1), and anti-p42/44 (ERK1; K-23) were from Santa Cruz Biotechnology.
# [1] = tested on: GPR55-silenced HeLa cells; experiment: LPI-induced ERK1/2 and p38 phosphorylation in shGPR55-HeLa clones (Western blot); format: cell-based, human
# Method: as §1, §2
# Cell lysates were obtained by scraping the cells into phospho-lysis buffer: 50 mM Tris–HCl, pH 7.5, 100 mM NaCl, 5 mM EDTA, 1% Triton X-100, 50 mM NaF, 40 mM β-glycerophosphate, 200 µM sodium orthovanadate, plus protease and phosphatase inhibitors (Roche). […]
# Protein lysates were subjected to SDS-PAGE, and after electrophoresis, the proteins were transferred to a nitrocellulose membrane (PerkinElmer Life Science, Boston, MA, USA). […] The membranes were then washed twice with T-TBS and once with TBS for 5 min, and the signals were detected by ECL (Amersham Pharmacia, Piscataway, NJ, USA). […]
# RAW264.7 cells = experiment: RANKL-induced transcription of osteoclastogenesis markers in RAW264.7 cells (real-time PCR); format: cell-based, murine
# Summary of the method: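 RAW264.7 cells in α-MEM/10% FBS were treated with 15–30 ng/mL RANKL, refreshed every 48 h, with or without GPR55 ligands (e.g. 0.5 µM ML-191, 30 µM O1918, 1 µM LPI) or 150 nM peptide-P1. Marker mRNA was quantified by SYBR Green real-time PCR normalised to β2-microglobulin; Gpr55 was knocked down by siRNA where applied.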
substance,measurement,setting,value
lysophosphatidylinositol [LPI],ERK2 phosphorylation upon LPI stimulation,endogenous GPR55 (HeLa),7.8 -fold basal levels
same,p38 phosphorylation upon LPI stimulation,endogenous GPR55 (HeLa),2.5 -fold basal levels
same,LPI response of empty vector (pcDNA3.1) transfected clones,[1]; 10 µM 18:0 LPI,did not respond to LPI addition
same,ERK1/2 and p38 activation,"[1]; 10 µM soybean LPI, or 1 µM ionomycin 5 min",did not show any ERK1/2 and p38 activation
same,further stimulation of RANKL-induced Trap transcription,"RAW264.7 cells; 1 µM soybean LPI, 24 h",0.2 -fold
same,increase in RANKL-induced Cathepsin-k mRNA,"RAW264.7 cells; 1 µM soybean LPI, 24 h",1.4 -fold
same,further stimulation of RANKL-induced Ctr transcription,"RAW264.7 cells; 1 µM soybean LPI, 48 h",2.4 -fold
same,further stimulation of RANKL-induced Nfatc1 transcription,"RAW264.7 cells; 1 µM soybean LPI, 48 h",1.1 -fold
same,further stimulation of RANKL-induced Trap transcription,"RAW264.7 cells; 1 µM soybean LPI, 48 h",0.7 -fold
same,increase in RANKL-induced Cathepsin-k mRNA,"RAW264.7 cells; 1 µM soybean LPI, 48 h",1.2 -fold
same,further stimulation of RANKL-induced Ctr transcription,"RAW264.7 cells; 1 µM soybean LPI, 72 h",1.6 -fold
same,further stimulation of RANKL-induced Trap transcription,"RAW264.7 cells; 1 µM soybean LPI, 72 h",0.7 -fold
same,modulation of RANKL-induced Cathepsin-k transcription,"RAW264.7 cells; 1 µM soybean LPI, 72 h",no modulation
same,effect on Mmp-9 transcription,"RAW264.7 cells; 1 µM soybean LPI, any of the times analysed",no effects on Mmp-9 transcription
same,effect on osteoclastogenesis marker transcription after washout,"RAW264.7 cells; LPI washout after the initial 24 h, data not shown",did not produce any significant effects
same,"RANKL-induced transcription of Ctr, si-NT versus si-GPR55 cells","RAW264.7 cells; RANKL 15 ng/mL, 72 h, 1 µM soybean LPI or 1 µM ML-184","similarly increased RANKL-induced transcription of Ctr only in precursor cells treated with non-targeting siRNAs, and not in those silenced for GPR55"

# — paper PMC8073907, “Peptide targeting of lysophosphatidylinositol-sensing GPR55 for osteoclastogenesis tuning” (Cell Communication and Signaling : CCS, 2021)
